Test results from patent publication US20190358181A1, “METHODS FOR AUTISM SPECTRUM DISORDER PHARMACOTHERAPY” (priority 2017, published 2019).

Tested on: 610 metabolites from 63 biochemical pathways
Test: Targeted broad-spectrum plasma metabolomic analysis (LC-MS/MS), paired pre-infusion vs post-infusion (2-days and 6-weeks)
Format: in vivo, human
Protocol: Targeted, broad-spectrum, plasma metabolomic analysis of 610 metabolites from 63 biochemical pathways was performed by high performance liquid chromatography and tandem mass spectrometry (LC-MS/MS) on the samples collected from patients in Example 1. Venous blood was collected between the hours of 8 am and 5 pm, at least 3 hours after the last meal, into lithium-heparin vacutainer tubes (BD #367884). Plasma was separated by centrifugation at 900 g×10 minutes at room temperature within one hour of collection. The resulting fresh lithium-heparin plasma was transferred to labeled 1.2 ml or 2.0 ml externally threaded cryotubes with a minimum headspace air gap for storage at −80° C. for analysis. Samples were analyzed on an AB SCIEX QTRAP 5500 triple quadrupole mass spectrometer equipped with a Turbo V electrospray ionization (ESI) source, Shimadzu LC-20A UHPLC system, and a PAL CTC autosampler. Typically, 90 μl of plasma was thawed on ice and transferred to a 1.7 ml Eppendorf tube. Five (5.0) μl of a cocktail containing 25-35 commercial stable isotope internal standards, and 5.0 μl of 57 stable isotope internal standards that were custom-synthesized in E. coli NCM3722, Caenorhabditis elegans N2, and Komagataella phaffii (ATCC 76273; formerly known as Pichia pastoris) by metabolic labeling with 13C-glucose and 13C-bicarbonate, were added, mixed, and incubated for 10 min at 20° C. to permit small molecules and vitamins in the internal standards to associate with plasma binding proteins. Macromolecules (protein, DNA, RNA, glycans, etc.) were precipitated by extraction with 4 volumes (400 μl) of cold (−20° C.), acetonitrile:methanol (50:50) (LCMS grade, Cat #LC015-2.5 and GC230-4, Burdick & Jackson, Honeywell), vortexed vigorously, and incubated on crushed ice for 10 min, then removed by centrifugation at 16,000 g×10 min at 4° C. The supernatants containing the extracted metabolites and internal standards in the resulting 40:40:20 solvent mix of acetonitrile:methanol:water were transferred to labeled cryotubes and stored at −80° C. for LCMS/MS analysis.
LC-MS/MS analysis was performed by scheduled multiple reaction monitoring (sMRM) under Analyst v1.6.2 software control in both negative and positive mode with rapid polarity switching (50 ms). Nitrogen was used for curtain gas (set to 30), collision gas (set to high), ion source gas 1 and 2 (set to 35). The source temperature was 500° C. Spray voltage was set to −4500 V in negative mode and 5500 V in positive mode. The values for Q1 and Q3 mass-to-charge ratios (m/z), declustering potential (DP), entrance potential (EP), collision energy (CE), and collision cell exit potential (CXP) were determined and optimized for each MRM for each metabolite. Ten microliters of extract was injected by PAL CTC autosampler via a 10 μl stainless steel loop into a 250 mm×2.0 mm, 4 μm polymer based NH2 HPLC column (Asahipak NH2P-40 2E, Showa Denko America, Inc., NY) held at 25° C. for chromatographic separation. The mobile phase was solvent A: 95% water with 20 mM (NH4)2CO3 (Sigma, Fluka Cat #74415-250G-F), 5% acetonitrile, and 38 mM NH4OH (Sigma, Fluka Cat #17837-100ML), final pH 9.75; solvent B: 100% acetonitrile. Separation was achieved using the following gradient: 0-3.5 min: 95% B, 3.6-8 min: 85% B, 8.1-13 min: 75% B, 13.5-35 min: 0% B, 36-46 min: 95% B, 46.1 min: end. The flow rate was 200 μl/min. Pump pressures ranged from 920-2600 psi over the course of the gradient. All the samples were kept at 4° C. during analysis. The chromatographic peaks were identified using MultiQuant (v3.0, Sciex), confirmed by manual inspection, and the peak areas integrated. […]

[1] = Tyrosine and Phenylalanine Metabolism, 2-days
[2] = Tyrosine and Phenylalanine Metabolism, 6-weeks
[3] = Vitamin C (Ascorbate) Metabolism, 6-weeks
[4] = Vitamin D (Calciferol) Metabolism, 2-days
[5] = cis-aconitic acid, plasma, 6-weeks
[6] = lsovalerylglycine, plasma, 6-weeks
[7] = p-Hydroxyphenylacetic acid, plasma, 6-weeks
[8] = plasma, 2-days after infusion vs pre-infusion, Amino Acid Metabolism (not otherwise covered)
[9] = plasma, 2-days after infusion vs pre-infusion, Amino-Sugar, Galactose, & Non-Glucose Metabolism
[10] = plasma, 2-days after infusion vs pre-infusion, Bile Salt Metabolism
[11] = plasma, 2-days after infusion vs pre-infusion, Bioamines and Neurotransmitter Metabolism
[12] = plasma, 2-days after infusion vs pre-infusion, Branch Chain Amino Acid Metabolism
[13] = plasma, 2-days after infusion vs pre-infusion, Cardiolipin Metabolism
[14] = plasma, 2-days after infusion vs pre-infusion, Ceramide Metabolism

Question: What does the source list for `Cc1ccc(C(=O)Nc2ccc(S(=O)(=O)O)c3cc(S(=O)(=O)O)cc(S(=O)(=O)O)c23)cc1NC(=O)c1cccc(NC(=O)Nc2cccc(C(=O)Nc3cc(C(=O)Nc4ccc(S(=O)(=O)O)c5cc(S(=O)(=O)O)cc(S(=O)(=O)O)c45)ccc3C)c2)c1` [Suramin, suramin]?
Answer: Increased [1]: 1; Observed Hits in the Top 61 Metabolites [1]: 1; Decreased [2]: 0; Fold Enrichment (Obs/Exp) [2]: 6.0; Fraction of Impact (VIP Score) Explained (% of 94.6) [2]: 4%; Impact (Sum VIP Score) [2]: 3.7; Increased [2]: 2; Observed Hits in the Top 48 Metabolites [2]: 2; Linear Ratio (Uridine, plasma, 6-weeks): 1.244; VIP Score (Uridine, plasma, 6-weeks): 1.764; Z Abs (Uridine, plasma, 6-weeks): 0.928; Z Score (Uridine, plasma, 6-weeks): 0.928; Decreased [3]: 0; Fold Enrichment (Obs/Exp) [3]: 4.5; Fraction of Impact (VIP Score) Explained (% of 94.6) [3]: 2%; Impact (Sum VIP Score) [3]: 2.0; Increased [3]: 1; Observed Hits in the Top 48 Metabolites [3]: 1; Decreased [4]: 1; Fold Enrichment (Obs/Exp) [4]: 2.4; Fraction of Impact (VIP Score) Explained (% of 119.7) [4]: 3%; Impact (Sum VIP Score) [4]: 3.1; Increased [4]: 0; Observed Hits in the Top 61 Metabolites [4]: 1; Linear Ratio [5]: 1.278; VIP Score [5]: 1.852; Z Abs [5]: 0.928; Z Score [5]: 0.928; metabolites significantly changed by suramin (total) (day 2): 61; Linear Ratio [6]: 2.027; VIP Score [6]: 1.888; Z Abs [6]: 0.901; Z Score [6]: 0.901; Linear Ratio [7]: 1.306; VIP Score [7]: 2.203; Z Abs [7]: 2.226; Z Score [7]: 2.226; 1-Methyl-adenine (1-MA) (plasma): increased; AICAR (plasma): increased; cAMP (plasma): decreased; dGDP (plasma): decreased; Linear Ratio, Alanine [8]: 1.193; VIP Score, Alanine [8]: 1.776; Z Abs, Alanine [8]: 1.066; Z Score, Alanine [8]: 1.066; Linear Ratio, Myoinositol [9]: 1.286; VIP Score, Myoinositol [9]: 1.645; Z Abs, Myoinositol [9]: 0.785; Z Score, Myoinositol [9]: 0.785; Linear Ratio, Chenodeoxyglycocholic acid [10]: 2.787; Linear Ratio, Glycocholic acid [10]: 2.344; Linear Ratio, Taurocholic acid [10]: 2.183; Linear Ratio, Taurodeoxycholic acid Pool [10]: 2.614; VIP Score, Chenodeoxyglycocholic acid [10]: 3.171; VIP Score, Glycocholic acid [10]: 3.090; VIP Score, Taurocholic acid [10]: 2.615; VIP Score, Taurodeoxycholic acid Pool [10]: 3.048; Z Abs, Chenodeoxyglycocholic acid [10]: 1.610; Z Abs, Glycocholic acid [10]: 2.020; Z Abs, Taurocholic acid [10]: 1.102; Z Abs, Taurodeoxycholic acid Pool [10]: 1.326; Z Score, Chenodeoxyglycocholic acid [10]: 1.610; Z Score, Glycocholic acid [10]: 2.020; Z Score, Taurocholic acid [10]: 1.102; Z Score, Taurodeoxycholic acid Pool [10]: 1.326; Linear Ratio, Dopamine [11]: 0.877; Linear Ratio, L-Glutamic acid [11]: 0.797; VIP Score, Dopamine [11]: 1.653; VIP Score, L-Glutamic acid [11]: 1.641; Z Abs, Dopamine [11]: 0.642; Z Abs, L-Glutamic acid [11]: 0.619; Z Score, Dopamine [11]: −0.642; Z Score, L-Glutamic acid [11]: −0.619; Linear Ratio, Isovalerylglycine [12]: 1.951; Linear Ratio, L-Isoleucine [12]: 1.094; Linear Ratio, L-Valine [12]: 1.165; Linear Ratio, Tiglylglycine [12]: 1.141; VIP Score, Isovalerylglycine [12]: 1.783; VIP Score, L-Isoleucine [12]: 2.136; VIP Score, L-Valine [12]: 1.808; VIP Score, Tiglylglycine [12]: 1.562; Z Abs, Isovalerylglycine [12]: 0.852; Z Abs, L-Isoleucine [12]: 0.815; Z Abs, L-Valine [12]: 0.749; Z Abs, Tiglylglycine [12]: 0.657; Z Score, Isovalerylglycine [12]: 0.852; Z Score, L-Isoleucine [12]: 0.815; Z Score, L-Valine [12]: 0.749; Z Score, Tiglylglycine [12]: 0.657; Linear Ratio, CL(18:2/18:2/18:2/18:1) [13]: 1.102; Linear Ratio, CL(18:2/18:2/18:2/18:2) [13]: 1.181; Linear Ratio, Ceramide(d18:1/18:2) [14]: 1.337; VIP Score, Ceramide(d18:1/18:2) [14]: 1.521
